Values of other authors in publication PMC9377340 (Chemical biology & drug design, 2022).
Values joined by “and” are separate entries in the source; they are usually repeats but may differ in a detail not shown here. Equal values may be shown once.

Target: human FXIa (Homo sapiens, UniProt P03951)
Details: ref Kar et al., 2020

Sequence of human FXIa (P03951 388-625 limits assumed): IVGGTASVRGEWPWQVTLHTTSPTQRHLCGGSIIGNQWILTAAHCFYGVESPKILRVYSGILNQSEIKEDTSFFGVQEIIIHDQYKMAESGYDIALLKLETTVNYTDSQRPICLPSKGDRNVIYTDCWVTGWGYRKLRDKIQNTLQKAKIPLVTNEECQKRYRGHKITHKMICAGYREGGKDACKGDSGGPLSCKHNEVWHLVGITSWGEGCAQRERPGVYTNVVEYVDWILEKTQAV
Sequence of human FXIa (P03951 19-387 limits assumed): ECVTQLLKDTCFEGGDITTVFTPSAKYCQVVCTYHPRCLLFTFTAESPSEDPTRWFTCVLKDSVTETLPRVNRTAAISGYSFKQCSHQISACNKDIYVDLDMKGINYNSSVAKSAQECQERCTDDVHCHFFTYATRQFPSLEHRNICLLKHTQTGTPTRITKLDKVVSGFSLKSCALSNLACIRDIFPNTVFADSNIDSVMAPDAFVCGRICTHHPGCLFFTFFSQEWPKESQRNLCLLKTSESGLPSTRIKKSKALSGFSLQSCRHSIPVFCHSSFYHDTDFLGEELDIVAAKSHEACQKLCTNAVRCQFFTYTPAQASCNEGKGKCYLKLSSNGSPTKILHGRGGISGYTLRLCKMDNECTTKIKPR

IC50 (read-out: IC50, FXIa inhibition): ~7.4 µM and 7.4 µM
HS (Hill slope), FXIa inhibition: 1.9 ± 0.5
ΔY (efficacy), FXIa inhibition: 68.0 ± 3.7%
Substance: benzyl tetraphosphonate [BTP]
